Laboratory results as given in patent publication US20100249138A1, “MPZP: A SMALL MOLECULE CORTICOTROPIN-RELEASING FACTOR TYPE 1 RECEPTOR (CRF1) ANTOGONIST” (priority 2007, published 2010).
Where two headings read alike, the source gives them in different places. Blank lines part the entries; values can stand above or below the molecule they belong to. No end group written: not given here.

Key:
[1] = tested on: precipitated-withdrawal induced anxiety-like behavior; assay: Defensive burying test during mecamylamine-precipitated nicotine withdrawal; assay type: in vivo, rat; conditions: for Burying / Freezing / Grooming / Latency to bury / Rearing / Resting: Vehicle + Mecamylamine
Experimental: Nicotine hydrogen tartrate salt (Sigma, Natick) was dissolved in saline at pH 7.4 and experimenter-administered via minipump or self-administered via indwelling jugular catheter. Doses are expressed as free base. Mecamylamine (Sigma; Natick, Mass.) was dissolved in saline and administered i.p. (1 ml/kg). The CRF1 antagonist (N,N-bis(2-methoxyethyl)-3-(4-methoxy-2-methylphenyl)-2,5-dimethyl-pyrazolo-[1,5α]pyrimidin-7-amine, or MPZP) was synthesized at The Scripps Research Institute by Dr. P. Wirshing, dissolved in 20% hydroxypropyl beta-cyclodextrin (Cavitron, Cargill) in isotonic saline at pH 4.5 and administered s.c. (2 ml/kg, 45 to 60 min before testing). Rat/human CRF was supplied by Dr. Jean Rivier, The Salk Institute. CRF was dissolved in 1× PBS (pH 7.4) and prepared fresh few minutes before intracerebral injection. The doses and time of injections were selected based on previous studies [Richardson et al., Program No. 783. 4 Neuroscience Meeting Planner. Atlanta, Ga.: Society for Neuroscience, OnlineI (2006); Specio et al., Program No. 777. 11 Neuroscience Meeting Planner. Washington, D.C.: Society for Neuroscience, Online (2004)].
Rats were subcutaneously implanted with osmotic minipumps delivering either saline (n=33) or nicotine (n=31) (3.16 mg/kg/day, free base, s.c.) as described above. After 14 days of pump exposure, testing was performed 5-8 hours into the dark cycle in a standard cage with 2 inches of bedding (wood shavings) along the bottom and a small hole centered in one side one inch above the bedding to accommodate the shock-probe. Rats were habituated (45 minutes) to the test cage for 2 days prior to testing. On the test day, mecamylamine or its vehicle were administered 30 minutes before behavioral testing, and the CRF1 antagonist or its vehicle were administered 45 minutes before behavioral testing (n=7-9 per group). On contact with the probe and shock delivery (using a Coulbourn precision shocker, 1.5 mA, AC, <1 s), verified by a startle response, the probe was deactivated. The latency and duration of probe-directed burying, rearing, resting, grooming, and freezing were measured from videotape over a 10 minutes period by an experimenter blind to the subject treatment condition using a computer program.

[2] = Debruyne et al. 2003; cited from earlier work
[3] = tested on: extracellular CRF-L-IR in the central nucleus of the amygdala; assay: In vivo microdialysis and radioimmunoassay of CRF-like immunoreactivity in the central nucleus of the amygdala; set-up: species or system rat; conditions: mecamylamine 1.5 mg/kg i.p.
Experimental: The changes in interstitial levels of CRF-like-immunoreactivity (CRF-L-IR) in the central nucleus of the amygdala were examined during mecamylamine-precipitated withdrawal (1.5 mg/kg, ip). Rats were subcutaneously implanted with osmotic minipumps (model 2m12, 14 days, 5 μL/hour; Durect Corporation, Palo Alto, Calif.) delivering either saline (non-dependent, n=5) or nicotine (nicotine-dependent, n=7) (3.16 mg/kg/day, free base, s.c.) and a microdialysis guide cannula (SciPro Inc., Sanborn N.Y., USA) stereotaxically positioned 1 mm above the central nucleus of the amygdala using the following coordinates (AP −3.3 mm; ML ±4.2 mm; V −6.5 mm, from dura with flat skull). After 14 days of pump exposure, a microdialysis probe (1 mm PES membrane, 15 kDA MW cutoff; SciPro Inc., Sanborn N.Y., USA) was lowered into the guide cannula and allowed to equilibrate for 12 hours (1 μl/min flow rate, artificial cerebrospinal fluid). […]
Dialysate CRF-like immunoreactivity was quantified with a sensitive and specific solid-phase radioimmunoassay (RIA) adapted from Zorrilla et al. Psychopharmacology (Berl). […] Wells were rinsed, blotted dry and separated, and residual radioactivity was counted by a gamma counter for 5 minutes per well.

[4] = tested on: cocaine-induced conditioned place preference; conditions: rats; cited from earlier work
[5] = tested on: cocaine self-administration; conditions: cited from earlier work
[6] = tested on: rat pituitary corticotropes; conditions: cited from earlier work
[7] = biological target: T1, CRF1 receptors (Rattus norvegicus, UniProt P35353); assay: [125I]-Tyr0-sauvagine competition binding, rat cerebellar membrane homogenates; set-up: from tissue; host or cells: rat cerebellum, membrane homogenate; conditions: six independent experiments, read-out: PIC50, displacement of specific [125I]-Tyr0-sauvagine binding (converted)
T1 sequence (P35353 24-415): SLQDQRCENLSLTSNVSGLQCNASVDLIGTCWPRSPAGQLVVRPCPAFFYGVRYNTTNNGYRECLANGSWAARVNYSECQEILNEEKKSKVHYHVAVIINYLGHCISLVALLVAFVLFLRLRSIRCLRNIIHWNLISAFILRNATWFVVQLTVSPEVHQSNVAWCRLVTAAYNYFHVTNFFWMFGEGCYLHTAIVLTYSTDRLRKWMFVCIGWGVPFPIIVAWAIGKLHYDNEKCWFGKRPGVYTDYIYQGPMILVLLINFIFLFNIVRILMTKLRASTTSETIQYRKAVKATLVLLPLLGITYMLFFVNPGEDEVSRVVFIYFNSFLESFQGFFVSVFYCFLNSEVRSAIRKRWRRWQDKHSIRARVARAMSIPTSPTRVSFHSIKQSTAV
Experimental: Binding activity of MPZP was determined in a competition assay using […] (2200 Ci/mmol; Perkin Elmer, Waltham, Mass.) as the radioligand. Cerebellum was homogenized in homogenizing buffer (Dulbecco's phosphate-buffered saline [PBS]:1.5 mM KH2PO4, 8.1 mM Na2HPO4, 2.7 mM KCl, 138 mM NaCl, pH 7.2, supplemented with 10 mM MgCl2, 2 mM EGTA) using a Polytron (Dispersing and Mixing Technology, Kinematica, Littau-Lucerne, Switzerland) at setting 6 for 2×15 seconds on ice. The homogenate was centrifuged at 45,000×g for 20 minutes at 4° C. The pellet was resuspended and spun at 45,000×g for 20 minutes at 4° C. The final pellet was resuspended in assay buffer (homogenizing buffer supplemented with protease inhibitor; 1 tablet/10 ml; Sigma CAT#58829-20TAB, St. Louis, Mo., pH 7.4) using a Polytron.
Med. Chem. (2000) 8:181-189], whose structural formula is shown below.
Total binding was determined using assay buffer in lieu of a CRF1 antagonist, and nonspecific binding was determined in the presence of 1 μM unlabeled sauvagine. The final radioligand concentration was 0.2 nM, and the reaction was incubated at room temperature for 2 hours. […] The pellet-containing tip was cut off and counted in an automated 10-detector gamma counter (MicroMedic Apex, ICN Biomedical, Costa Mesa, Calif.) at 80% efficiency. […]

[8] = tested on: plasma corticosterone; conditions: rats; cited from earlier work
[9] = tested on: anxiety-like behavior of naive rats; assay: Defensive burying test after bilateral CRF infusion in the central nucleus of the amygdala; assay type: in vivo, rat; conditions: CRF 30 pmol total dose, bilateral intra-amygdala
Experimental: To confirm that increases of CRF in the central nucleus of the amygdala elicit anxiety-like behavior, anxiety-like behavior was measured using the defensive burying test, after bilateral infusion of CRF (30 pmol total dose) or vehicle in the central nucleus of the amygdala of naive rats one minute before beginning of the burying test. CRF administered directly into the amygdala increased the time spent burying and decreased the latency to bury during the first 5 minutes after infusion (Table 2),
Rats were anesthetized with an isoflurane-oxygen mixture, and 26-gauge stainless steel guide cannulas (Plastics One, Roanoke, Va.) aimed 2 mm above the central nucleus of the amygdala stereotaxically were implanted bilaterally: AP −2.6 mm; ML ±4.2 mm; V −5.2 mm, from dura, with flat skull (Paxinos and Watson, 1998). The guide cannulas were secured to the skull with dental cement and anchor screws, and guide cannulas were maintained with stylets. Intracerebral injections were administered with the use of injectors (33-gauge; Plastics One) that projected 2 mm past the guide cannula to the central nucleus of the amygdala. The injectors were attached to 70 cm of calibrated polyethylene-20 tubing preloaded with drug solution. This cohort of rats had been extensively handled previously in the context of a food intake study, in which they received administration of a CRF1 receptor antagonist subcutaneously and into the central nucleus of the amygdala in a Latin-square design. A washout period of 7 days was imposed before the present study with all subjects maintained on chow, during which animals were handled daily. Rats were randomly assigned to CRF vs. vehicle conditions balanced for previous diet history, which was statistically unrelated to performance in the defensive burying test. The CRF group (n=5) was infused bilaterally (30 pmol total dose) with a volume of 0.25 μL/side over 30 seconds using Hamilton microsyringes and 2 infusion pumps (Harvard Apparatus, Holliston, Mass.). The control group (n=5) received the same volume of PBS. Injectors were removed from guide cannulae 1 minute after the end of the infusions, and rats were returned to the home cage for 1 minute before being tested in the defensive burying test.

[10] = nicotine-dependent rats, mecamylamine injection

Molecule: CNC1(C)C2CCC(C2)C1(C)C (centres unmarked) [mecamylamine, reference compound]
- Burying ([1]; nicotine pump): 271 ± 46 s
- Freezing ([1]; nicotine pump): 1 ± 1 s
- Grooming ([1]; nicotine pump): 16 ± 5 s
- Latency to bury ([1]; nicotine pump): 31 ± 9 s
- Rearing ([1]; nicotine pump): 105 ± 25 s
- Resting ([1]; nicotine pump): 49 ± 21 s
- change in latency to bury compared to vehicle injection [1, 10]: −70%
- change in time spent burying compared to vehicle injection [1, 10]: +243%
- anxiety-like behavior ([1]; non-dependent rats, mecamylamine injection): did not alter
- Burying ([1]; saline pump): 135 ± 39 s
- Freezing ([1]; saline pump): 1 ± 1 s
- Grooming ([1]; saline pump): 30 ± 12 s
- Latency to bury ([1]; saline pump): 87 ± 25 s
- Rearing ([1]; saline pump): 118 ± 14 s
- Resting ([1]; saline pump): 67 ± 24 s
- pharmacokinetic half-life [2]: about 1 hour
- increase of CRF-L-IR in the central amygdala compared with baseline ([3]; nicotine-dependent rats): over 500%
- increase of CRF-L-IR in the central amygdala ([3]; saline-treated (non-dependent) rats): not observed

Molecule: CCCCN(CC)c1nc(C)nc2c1c(C)cn2-c1c(C)cc(C)cc1C [CP-154,526]
- cocaine-induced conditioned place preference [4]: reduced
- cocaine self-administration ([5]; 0.5 mg/kg/injection cocaine, rats): reduced
- cocaine self-administration ([5]; rats with limited daily drug access (1 h/day), pretreatment): dose-dependent decreases
- food-reinforced responding ([5]; rats, pretreatment): does not affect

- IC50 [7]: 2.14 nM
Molecule: CCC(CC)Nc1cc(C)nc2c(-c3ccc(OC)cc3C)c(C)nn12 [DMP904]
- ACTH release [6]: inhibited
- stress-induced increase of plasma corticosterone [8]: dose-dependently inhibited

Molecule: CRF: Corticotropin-releasing factor, a 41 amino-acid residue peptide; rat/human CRF infused into the central nucleus of the amygdala (SEEPPISLDLTFHLLREVLEMARAEQLAQQAHSNRKLMEII; ends and bridges not checked; UniProt P06850 154-194, looked up)
- Grooming [9]: 30 ± 27 s
- Latency to bury [9]: 165 ± 91 s
- Rearing [9]: 91 ± 15 s
- Burying ([9]; first 5 minutes after infusion): 7.1 ± 4.7 s
